# Experimental data published in patent US20190212340A1, “AN ELISA-LIKE ASSAY FOR QUANTIFYING ENZYMATIC ACTIVITIES OF MONO-ADP-RIBOSYLTRANSFERASES” (University of Southern California, priority 2016, published 2019).
# What was measured:
# PARP15 [1] = biological target: T1, PARP15 (Homo sapiens, UniProt Q460N3); assay: MLISA inhibition of PARP15-catalyzed automodification (Experiment No. 2); type: biochemical; conditions: at concentrations up to 100 μM
# T1 construct: The catalytic domains of PARP15 (residue 481-678); His6 (N); Factor Xa cleavage site (IEGR) (N); made in house; host or cells: E. coli BL21 (DE3)
# T1 sequence (Q460N3 with tags, fused parts or gaps): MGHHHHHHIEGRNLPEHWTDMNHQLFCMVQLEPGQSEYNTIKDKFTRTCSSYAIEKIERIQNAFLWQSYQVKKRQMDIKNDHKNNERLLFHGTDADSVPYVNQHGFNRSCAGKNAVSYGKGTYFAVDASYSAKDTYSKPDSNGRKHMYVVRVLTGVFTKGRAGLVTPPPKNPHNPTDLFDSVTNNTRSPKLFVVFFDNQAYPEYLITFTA
# PARP15 [2] = biological target: T2, PARP15 (Homo sapiens, UniProt Q460N3); conditions: Karlberg et al., J. Biol. Chem. 2015; read-out: Km value of PARP15 reported previously; cited from earlier work
# T2 sequence (Q460N3 1-678): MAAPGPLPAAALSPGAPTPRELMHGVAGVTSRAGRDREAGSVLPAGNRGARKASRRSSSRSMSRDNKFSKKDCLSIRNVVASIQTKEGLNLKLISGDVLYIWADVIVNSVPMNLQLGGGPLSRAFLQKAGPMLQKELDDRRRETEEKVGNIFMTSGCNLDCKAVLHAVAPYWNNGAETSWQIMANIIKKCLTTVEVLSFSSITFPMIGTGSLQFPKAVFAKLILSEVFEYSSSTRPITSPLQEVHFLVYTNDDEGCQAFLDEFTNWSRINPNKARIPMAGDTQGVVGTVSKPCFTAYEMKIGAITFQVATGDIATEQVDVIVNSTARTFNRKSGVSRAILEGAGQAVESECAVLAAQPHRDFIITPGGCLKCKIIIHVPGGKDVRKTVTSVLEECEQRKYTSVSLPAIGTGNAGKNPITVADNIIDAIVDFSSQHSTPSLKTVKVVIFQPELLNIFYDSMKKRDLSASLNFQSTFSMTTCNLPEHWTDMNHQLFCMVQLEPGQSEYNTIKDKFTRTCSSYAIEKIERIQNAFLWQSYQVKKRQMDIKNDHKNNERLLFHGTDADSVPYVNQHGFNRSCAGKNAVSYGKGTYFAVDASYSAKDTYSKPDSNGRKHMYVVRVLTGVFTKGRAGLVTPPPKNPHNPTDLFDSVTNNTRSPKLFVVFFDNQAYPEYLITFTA
# PARP15 [3] = biological target: T1, PARP15; assay: M2-based ELISA plate inhibition assay, PARP15 (Experiment No. 1); type: biochemical; conditions: 500 nM PARP15, 500 μM NAD+, inhibitors at 1, 10 and 100 μM, 2 h
# Procedure: The general scheme of ELISA assay is illustrated in FIG. 1. PARP automodification reactions (100 μL) were conducted in 96-wells plate together with the coating process for 2 hours at room temperature. After five times of 200 μL PBST washes (0.1% v/v Tween 20 in PBS buffer, pH 7.4) per well the plates were blocked with 3% BSA dissolved in PBS buffer for 2 hours under room temperature followed by five washes of 200 μL PBST per well. The plates were incubated for 1 hour upon addition of 100 μL of 0.1 μM Macrodomain 2 and then washed five times with 200 μL PBST per well. […] The fluorescence signal was developed by addition of 75 μL QuantaBlu Fluorogenic Peroxidase Substrate and recorded by Synergy H1 Multi-Mode Reader (BioTek, VT). Kinetic parameters were calculated using nonlinear regression Michaelis-Menten model using GraphPad Prism (GraphPad Software). […]
# 96-well ELISA plates were coated with reactions in triplicates consisting of PARP enzymes (PARP14: 1 μM; PARP15: 500 nM) with various inhibitors at different concentrations (1, 10 and 100 μM) in addition to 500 μM of NAD^+ in Reaction Buffer (50 mM Tris-HCl, pH 7.4, 2 mM dTT). […] To control for any potential inhibition activity related to DMSO, wells containing 1% DMSO were analyzed in triplicates alongside with no inhibitor control wells and 100 μM control inhibitor wells.
inhibition effects on PARP15 activity (PARP15 [1]),Compound,other results
no significant inhibition effects,CN(C)c1ccc(O)c2c1C[C@H]1C[C@H]3[C@H](N(C)C)C(O)=C(C(N)=O)C(=O)[C@@]3(O)C(O)=C1C2=O [Minocin],
no significant inhibition effects,O=c1[nH]c(-c2ccc(C(F)(F)F)cc2)nc2c1CSCC2 [XAV939],

# Continued, compound first:
Compound,inhibition effects on PARP15 activity (PARP15 [1]),other results
Nc1ncnc2[nH]cnc12 [Adenine],no significant inhibition effects,
"NC(=O)c1ccc[n+]([C@@H]2O[C@H](COP(=O)([O-])OP(=O)(O)OC[C@H]3O[C@@H](n4cnc5c(N)ncnc54)[C@H](O)[C@@H]3O)[C@@H](O)[C@H]2O)c1 [NAD^+, Nicotinamide adenine dinucleotide]",,Km (PARP15 [2]): 5.8 ± 1.9 µM
O=C(c1cc(Cc2n[nH]c(=O)c3ccccc23)ccc1F)N1CCN(C(=O)C2CC2)CC1 [Olaparib],,inhibition of PARP15 (fluorescence intensity) (PARP15 [3]): better inhibitory effect at 100 μM but it is less potent comparing to other inhibitor
